Experimental data: patent publication US10183931B2, “Rho kinase inhibitors” (priority 2012, dated 2019)
“Also recorded” adds a separate entry of the source.

How the values were obtained:
ROCK2 = ROCK2 (Homo sapiens (Human), UniProt O75116); details: read-out: ROCK2 IC50; Z′-LYTE, 12 uM ATP
Text: (§1) Dose response curves for Rho-kinase inhibition were derived from a Invitrogen Z′-LYTE™ Kinase Assay Kit (Invitrogen catalog number PV3793). Purified active ROCK1 and ROCK2 were obtained from Invitrogen (catalog numbers ROCK1, PV3691 and ROCK2, PV3759). The kit components include a coumarin and fluorescein labeled peptide based on myosin light chain 2 ([sequence]), a proprietary protease containing development reagent and a proprietary Stop buffer used to terminate the development reaction. The inhibitory activities of compounds are measured according to the manufactures protocol. Briefly, decreasing concentrations of test compounds or the known ROCK inhibitor Y-27963, are added, from 10 uM to 2.56×10^−5 uM to reaction buffer containing 50 mM HEPES pH 7.5, 10 mM MgCl2, 5 mM EGTA, and 0.05% Brij-35 and of ROCK1 at 0.18 ug/mL or ROCK2 at 0.8 ug/mL in assay dilution buffer. […] STOP reagent is then added and the reaction and immediately the coumarin and fluorescein emission signals are read on a Tecan Infinite M1000 fluorescence plate reader (excitation: 400 nm; emission 445 and 520 nm, respectively). By comparing the emission ratios of the test samples against control samples, percent phosphorylation values are calculated and the concentration of inhibitor that produces 1/2 inhibition of kinase activity (IC50) is determined using Prism.

ROCK1 = ROCK1 (Homo sapiens (Human), UniProt Q13464); details: read-out: ROCK1 IC50; Z′-LYTE, 5 uM ATP
Text: as §1

human CD4+ T cells [1] = assay: cytokine secretion by anti-CD3/CD28 stimulated CD4+ T cells in vitro; type: cell-based; details: anti-CD3/CD28 stimulation
human CD4+ T cells [2] = assay: T cell proliferation in response to TCR stimulation in vitro; type: cell-based
STAT3 phosphorylation = STAT3 phosphorylation in T cells; type: cell-based, human
[3] = tested on: CD4+ T cells from RA patients; assay: cytokine secretion ex vivo by CD3/CD28 stimulated CD4+ T cells from RA patients; type: cell-based, human
human CD4+ T cells [4] = assay: Foxp3+ cells among CD4+ T cells after Th17 skewing activation; type: cell-based; details: 5 days Th17 skewing activation
human Tregs = assay: Treg suppression of IL-17 secretion in CD4+CD25- effector T cells; type: cell-based; details: Tregs treated 3 hours; Treg:Teff 1:4 and 1:9
[5] = tested on: TGF-β-induced phosphorylation; assay: TGF-β-induced phosphorylation of STAT3, MLC and SMAD2/3 in Tregs; type: cell-based, human
[6] = RA patients, ex vivo, TCR stimulation

ROCK2, sequence (O75116 5-554 limits assumed): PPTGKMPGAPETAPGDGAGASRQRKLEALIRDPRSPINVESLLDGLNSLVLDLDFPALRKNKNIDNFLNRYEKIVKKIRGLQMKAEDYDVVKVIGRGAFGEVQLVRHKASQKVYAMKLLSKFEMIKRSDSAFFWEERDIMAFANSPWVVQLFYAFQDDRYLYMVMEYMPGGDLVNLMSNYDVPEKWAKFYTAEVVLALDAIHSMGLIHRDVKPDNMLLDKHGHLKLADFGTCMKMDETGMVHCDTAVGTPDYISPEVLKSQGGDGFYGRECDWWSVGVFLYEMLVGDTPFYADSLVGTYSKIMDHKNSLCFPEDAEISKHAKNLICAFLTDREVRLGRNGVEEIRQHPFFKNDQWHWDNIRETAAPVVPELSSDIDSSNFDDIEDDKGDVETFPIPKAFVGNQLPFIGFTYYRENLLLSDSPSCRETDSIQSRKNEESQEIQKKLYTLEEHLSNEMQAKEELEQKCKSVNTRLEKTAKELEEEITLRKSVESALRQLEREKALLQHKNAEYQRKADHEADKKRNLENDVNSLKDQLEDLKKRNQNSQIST
ROCK1, sequence (Q13464 1-535 limits assumed): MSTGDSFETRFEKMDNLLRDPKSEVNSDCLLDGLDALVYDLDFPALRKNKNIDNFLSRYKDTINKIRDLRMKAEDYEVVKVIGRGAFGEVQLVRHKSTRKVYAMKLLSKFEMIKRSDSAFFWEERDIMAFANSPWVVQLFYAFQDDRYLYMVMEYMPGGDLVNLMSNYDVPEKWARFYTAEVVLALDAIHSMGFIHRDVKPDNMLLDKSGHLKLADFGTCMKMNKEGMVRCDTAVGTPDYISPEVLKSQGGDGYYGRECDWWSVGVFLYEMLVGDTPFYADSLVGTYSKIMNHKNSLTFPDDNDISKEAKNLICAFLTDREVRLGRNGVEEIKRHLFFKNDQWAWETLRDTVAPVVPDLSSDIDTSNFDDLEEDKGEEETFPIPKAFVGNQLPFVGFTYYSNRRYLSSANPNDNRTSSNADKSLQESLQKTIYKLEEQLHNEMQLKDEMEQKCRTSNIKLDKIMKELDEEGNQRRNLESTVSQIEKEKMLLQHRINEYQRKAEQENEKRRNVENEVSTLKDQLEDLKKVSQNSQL

Compound	IC50 (ROCK2)	IC50 (ROCK1)	inhibition of IFN-γ secretion (human CD4+ T cells [1])	inhibition of IL-2 secretion (human CD4+ T cells [1])	IL-17 secretion (human CD4+ T cells [1]; dose-dependent)	IL-21 secretion (human CD4+ T cells [1]; dose-dependent)	ability to proliferate in response to TCR stimulation (human CD4+ T cells [2])	phosphorylation of STAT3 (STAT3 phosphorylation; T cells, two experimental designs)	STAT3 phosphorylation (STAT3 phosphorylation; Th17-skewing conditions 5 days, then treatment 3 hours)	frequencies of IL-17 and IFN-γ-producing cells ([3]; 2 RA patients, intracellular staining)	secretion of IFN-γ [3, 6]	secretion of IL-17 [3, 6]	secretion of IL-21 [3, 6]	percentage of Foxp3+ cells (human CD4+ T cells [4])	ability of Tregs to suppress IL-17 secretion in CD4+CD25- effector T cells (human Tregs)	phosphorylation of SMAD2/3 [5]	TGF-β-induced MLC phosphorylation ([5]; dose-dependent)	TGF-β-induced STAT3 phosphorylation ([5]; dose-dependent)
CC(N)c1cccc(-c2nccc(Nc3ccc4[nH]ncc4c3)n2)c1 (centres unmarked) [Example 147, N-(2-(3-(1-aminoethyl)phenyl)pyrimidin-4-yl)-1H-indazol-5-amine]	> 5.5 µM	> 2 µM																
CC(C)NC(=O)COc1cccc(-c2nc(Nc3ccc4[nH]ncc4c3)cc(C(F)(F)F)n2)c1 [Example 169]	> 10 µM	> 10 µM																
CC(C)NC(=O)COc1cccc(-c2nc(Nc3ccc4[nH]ncc4c3)c3ccccc3n2)c1 [KD025]			less robust and significant only at high dose (10 μM)	observed only at the highest concentration (10 μM)	inhibits; also recorded: significantly inhibited	inhibits; also recorded: significantly inhibited	inhibits; also recorded: down-regulated	inhibits; also recorded: significantly down-regulates	reduced	significantly reduced	inhibits; also recorded: significantly down-regulated	inhibits; also recorded: significantly down-regulated	inhibits; also recorded: significantly down-regulated	significantly increased	significantly increased	remains intact	down-regulates	down-regulates
